Source: patent US7994156B2 (priority 2007, dated 2011)

Assays:
[1] = target: T1, α7-subtype of nicotinic receptors (Rattus norvegicus, UniProt Q05941); assay: biochemical; format: binding
T1 construct: Cerebral cortices from male Wistar rats (150-250 g) are homogenised; from tissue; host or cells: cerebral cortex of male Wistar rats, washed membrane pellet

[2] = target: T2, serotonine (5-HT) reuptake in synaptosomes (Rattus norvegicus, UniProt P31652); assay: Inhibition of 5-HT reuptake in synaptosomes; format: biochemical; settings: 3H-5-HT, read-out: 5-HT-uptake IC50
T2 construct: serotonine (5-HT) in synaptosomes as described in WO 97/16451; from tissue
Procedure: (§1) A compound of the invention was tested for its ability to inhibit the reuptake of the monoamine neurotransmitters dopamine (DA) noradrenaline (NA) and serotonine (5-HT) in synaptosomes as described in WO 97/16451.
(§2) The test values are given as IC50 (the concentration (μM) of the test substance which inhibits the specific binding of ^3H-DA, ^3H-NA, or ^3H-5-HT by 50%).

[3] = target: T3, dopamine (DA) reuptake in synaptosomes (Rattus norvegicus, UniProt P23977); assay: Inhibition of DA reuptake in synaptosomes; format: biochemical; settings: 3H-DA, read-out: DA-uptake IC50
T3 construct: in synaptosomes as described in WO 97/16451; from tissue
Procedure: as §1, §2

T3 sequence (P23977 whole entry): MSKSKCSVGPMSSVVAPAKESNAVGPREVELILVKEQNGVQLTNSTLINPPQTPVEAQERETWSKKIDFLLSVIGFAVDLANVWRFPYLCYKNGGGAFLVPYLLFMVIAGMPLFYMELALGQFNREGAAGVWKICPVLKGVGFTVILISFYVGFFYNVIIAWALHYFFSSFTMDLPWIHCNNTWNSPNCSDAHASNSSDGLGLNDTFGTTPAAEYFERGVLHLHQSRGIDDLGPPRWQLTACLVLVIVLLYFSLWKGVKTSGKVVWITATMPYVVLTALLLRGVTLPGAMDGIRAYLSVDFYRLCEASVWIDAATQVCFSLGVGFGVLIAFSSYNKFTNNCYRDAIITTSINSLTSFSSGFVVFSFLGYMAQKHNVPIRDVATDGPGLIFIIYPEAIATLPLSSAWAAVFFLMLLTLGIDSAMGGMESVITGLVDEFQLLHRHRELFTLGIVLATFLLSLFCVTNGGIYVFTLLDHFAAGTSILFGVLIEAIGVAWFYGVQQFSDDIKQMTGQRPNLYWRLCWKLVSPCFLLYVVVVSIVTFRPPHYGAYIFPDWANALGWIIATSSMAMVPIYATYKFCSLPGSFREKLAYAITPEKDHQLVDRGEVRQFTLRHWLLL
T2 sequence (P31652 whole entry): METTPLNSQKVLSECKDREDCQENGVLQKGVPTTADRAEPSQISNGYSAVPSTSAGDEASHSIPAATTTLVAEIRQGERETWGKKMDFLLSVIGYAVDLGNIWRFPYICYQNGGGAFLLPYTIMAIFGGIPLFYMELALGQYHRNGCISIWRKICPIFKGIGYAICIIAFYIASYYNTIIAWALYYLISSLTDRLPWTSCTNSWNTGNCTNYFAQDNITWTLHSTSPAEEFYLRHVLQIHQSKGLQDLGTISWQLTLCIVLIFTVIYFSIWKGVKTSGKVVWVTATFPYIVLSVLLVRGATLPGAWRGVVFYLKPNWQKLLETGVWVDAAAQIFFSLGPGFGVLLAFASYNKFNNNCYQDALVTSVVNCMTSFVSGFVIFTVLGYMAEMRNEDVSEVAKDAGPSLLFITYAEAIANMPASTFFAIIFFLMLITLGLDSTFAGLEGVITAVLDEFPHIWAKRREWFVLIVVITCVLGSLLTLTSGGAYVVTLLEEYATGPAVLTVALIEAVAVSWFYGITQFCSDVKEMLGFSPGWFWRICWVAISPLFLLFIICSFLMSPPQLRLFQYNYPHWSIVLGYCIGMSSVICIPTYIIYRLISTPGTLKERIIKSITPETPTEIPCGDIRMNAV
T1 sequence (Q05941 23-502): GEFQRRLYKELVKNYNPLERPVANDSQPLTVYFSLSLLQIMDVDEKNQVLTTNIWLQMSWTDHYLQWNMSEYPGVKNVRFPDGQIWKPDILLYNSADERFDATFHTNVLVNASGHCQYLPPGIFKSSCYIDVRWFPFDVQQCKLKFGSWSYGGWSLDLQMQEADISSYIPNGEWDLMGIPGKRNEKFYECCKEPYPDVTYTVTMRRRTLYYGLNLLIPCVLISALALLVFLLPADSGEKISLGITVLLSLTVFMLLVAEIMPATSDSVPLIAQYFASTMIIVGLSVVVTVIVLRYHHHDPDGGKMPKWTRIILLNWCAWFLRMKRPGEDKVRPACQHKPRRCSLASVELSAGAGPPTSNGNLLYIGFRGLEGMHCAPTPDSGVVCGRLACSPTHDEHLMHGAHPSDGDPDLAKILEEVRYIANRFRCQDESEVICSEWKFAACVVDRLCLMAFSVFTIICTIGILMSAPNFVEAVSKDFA

SMILES: O=C(Oc1ccc(N=Nc2ccccc2)cc1)N1CCN2CCC1CC2 [1,4-Diaza-bicyclo[3.2.2]nonane-4-carboxylic acid 4-phenylazo-phenyl ester]
- IC50 [1]: 1.6 µM
- IC50 [2]: 13 µM
- IC50 [3]: 0.032 µM
